Assay results published in patent US10464912B2, “Choline cocrystal of epalrestat” (BIONEVIA PHARMACEUTICALS, INC., priority 2008, dated 2019).

Conditions: ambient temperature, after approximately 24 hours, FIG. 6A
Description: Samples were taken at approximately 1, 3, 6, and 24 hours, and analyzed by UV spectrophotometry using a SpectraMax M2 UV-VIS spectrophotometer. Wavelength calibration and photometric accuracy were performed using the SpectraMax Pro 5 software as an internal calibration of the instrument. The detector was zeroed with a reference well on a microplate filled with water on which data were obtained, and those data were subtracted from collected data. Samples were analyzed in the UV range at room temperature in the wells of a 96-well quartz plate.

dissolved concentration of epalrestat (solubility in water): 249 µg/mL
SMILES: CC(/C=C1\SC(=S)N(CC(=O)O)C1=O)=C\c1ccccc1 [choline hydrogen diepalrestat]
